# Results: US20230028880A1, “CD38-BINDING AGENTS AND USES THEREOF” (Biohaven Therapeutics Ltd., priority 2019, published 2023)
# Values joined by “and” are separate entries in the source; they are usually repeats but may differ in a detail not shown here. Identical values can stand only once. “Also recorded” adds a separate entry of the source.
# Assays:
# Daudi cells = experiment: Ternary binding assay: recruitment of PE-labeled human IgG1k to Daudi cells (flow cytometry, MFI); assay type: cell-based; settings: duplicate columns
# How it was run: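 Daudi cells, 100,000 per well, were suspended in flow buffer (1% BSA, 0.5 mM EDTA, PBS) containing 11.1 ug/mL PE-labeled human IgG1k and incubated with ½-log compound dilutions (8–12 concentrations) for 30 min at 37 °C. After two washes with 0.5% Tween 20 buffer, mean fluorescence was read by flow cytometry and fitted with a four-parameter variable-slope model.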
# [1] = system: multiple myeloma patient bone marrow plasma cells (CD38+ CD138+); experiment: Patient bone marrow with autologous CIML NK cells: reduction of plasma cells; assay type: cell-based, human; settings: 4 hr, IVIG 10 ug/ml (FIG. 7)
# Procedure: (§1) Patient bone marrow (3 ml) and blood (20 ml) were shipped at ambient temperature from Discovery Biosciences. Bone marrow was diluted 1:1 with PBS, and […] of bone marrow-PBS mixture was aliquoted into 96 deep well plates. Bone marrow cells were incubated overnight until CIML cells were added next day.
# (§2) PBMC were isolated from blood by Ficoll density gradient centrifugation. PBMC were centrifuged at 400 g for 10 min and re-suspended in EasySep buffer. NK cells were isolated using NK cell isolation kits from […] Technologies according to kit's manufacturers' instructions.
# (§3) NK cells were re-suspended at 1×10^6 cells/ml in XVIVO15, 10% Human Serum, IL-15 (50 ng/ml), IL-12 (10 ng/ml), IL-18 (50 ng/ml), and incubated for 18 hrs. Following overnight incubation with cytokines, NK cells were washed twice with PBS 5% Human Serum Albumin, counted and re-suspended at a cell density of 2×10^5 cells/ml of XVIVO15 media. Twenty microliters (4000 cells) were added per each well containing 50 µl of bone marrow: PBS mixture. […] Control wells received XVIVO15 media. Well contents were mixed by pipetting up and down and plates were centrifuged at 400 g for 1 min.
# (§4) The assay was then incubated for 4 hrs at 37° C. 5% CO2. […] Finally, cells were re-suspended in 200 µl of FACS Buffer and analyzed using Attune Flow Cytometer. Data were analyzed using FlowJo software and graphed using GraphPad Prism.
# [2] = system: CD56+CD138- CIML NK cells; experiment: Patient bone marrow with CIML NK cells: NK cell fratricide; assay type: cell-based, human; settings: CIML NK cells co-incubated with patient bone marrow for 4 hrs (FIG. 8)
# Procedure: as §1, §2, §3, §4
structure (smiles),measurement,setting,value
CCCCC[C@@H]1NC(=O)[C@H](CCCNC(=N)N)NC(=O)[C@H](C)NC(=O)CSC[C@@H](C(=O)NCCOCCOCCOCCOCCOCCOCCn2nnc3c2CCC2C(CC3)C2COC(=O)N2CCC(C(=O)NCC(=O)N[C@H](CCC(=O)N[C@H](CCC(=O)N[C@H](CCC(=O)O)C(=O)N[C@H](CCC(=O)N[C@H](CCC(=O)NCC(=O)NCC(=O)N[C@@H](CC(=O)O)C(=O)N[C@H]3CSSC[C@@H](C(=O)N[C@H](C(=O)O)[C@@H](C)O)NC(=O)[C@H](Cc4c[nH]c5ccccc45)NC(=O)[C@H](C(C)C)NC(=O)[C@H](CC(C)C)NC(=O)[C@H](CCC(=O)O)NC(=O)CNC(=O)[C@H](CC(C)C)NC(=O)[C@H](Cc4c[nH]cn4)NC(=O)[C@H](Cc4c[nH]c5ccccc45)NC(=O)[C@H](C)NC3=O)C(=O)O)C(=O)O)C(=O)O)C(=O)O)CC2)NC(=O)[C@H](CC(=O)O)NC(=O)[C@H](CCCCC)NC(=O)[C@H](Cc2ccc(-c3ccccc3)cc2)NC(=O)[C@H](CC(C)C)NC(=O)[C@H](C(C)C)NC(=O)CNC(=O)[C@H](CC(=O)O)NC(=O)[C@H](Cc2c[nH]cn2)NC(=O)[C@H](Cc2ccc(O)cc2)NC1=O (stereo partly shown) [I-17],"MFI, recruitment of PE-labeled human IgG1k to Daudi cells",Daudi cells; compound 0.03 nM,2516 and 2391
same,"MFI, recruitment of PE-labeled human IgG1k to Daudi cells",Daudi cells; compound 0.1 nM,2322 and 2622
same,"MFI, recruitment of PE-labeled human IgG1k to Daudi cells",Daudi cells; compound 0.3 nM,2387 and 2457
same,"MFI, recruitment of PE-labeled human IgG1k to Daudi cells",Daudi cells; compound 1 nM,3272 and 2451
same,"MFI, recruitment of PE-labeled human IgG1k to Daudi cells",Daudi cells; compound 3 nM,2516 and 2680
same,"MFI, recruitment of PE-labeled human IgG1k to Daudi cells",Daudi cells; compound 10 nM,7119 and 4086
same,"MFI, recruitment of PE-labeled human IgG1k to Daudi cells",Daudi cells; compound 30 nM,3869 and 5244
same,"MFI, recruitment of PE-labeled human IgG1k to Daudi cells",Daudi cells; compound 100 nM,7575 and 6333
same,"MFI, recruitment of PE-labeled human IgG1k to Daudi cells",Daudi cells; compound 300 nM,7514 and 8562
same,"MFI, recruitment of PE-labeled human IgG1k to Daudi cells",Daudi cells; compound 1000 nM,10015 and 9697
same,"MFI, recruitment of PE-labeled human IgG1k to Daudi cells",Daudi cells; compound 3000 nM,9069 and 9922
same,reduction in the frequencies of CD38+ CD138+ cells in patient bone marrow,[1],effectively reduced frequency of plasma cells; also recorded: can reduce the number of plasma cells
same,NK cell numbers / NK cell fratricide,[2],NK cell numbers did not change; also recorded: No or low level of undesired NK cell fratricide
